Legend:
[1] = molecular target: T1, Urotensin-2 receptor (Rattus norvegicus, UniProt P49684); experiment: Allosteric modulation of urotensin-2 receptor in Sprague-Dawley rat thoracic aorta assessed as change in human urotensin-2-mediated aortic ring contraction by measuring urotensin-2 pEC50 at 10^-5M preincubated for 15 mins followed by urotensin-2 addition (Rvb = 8.61 +/- 0.05 No_unit)
T1 sequence (P49684 whole entry): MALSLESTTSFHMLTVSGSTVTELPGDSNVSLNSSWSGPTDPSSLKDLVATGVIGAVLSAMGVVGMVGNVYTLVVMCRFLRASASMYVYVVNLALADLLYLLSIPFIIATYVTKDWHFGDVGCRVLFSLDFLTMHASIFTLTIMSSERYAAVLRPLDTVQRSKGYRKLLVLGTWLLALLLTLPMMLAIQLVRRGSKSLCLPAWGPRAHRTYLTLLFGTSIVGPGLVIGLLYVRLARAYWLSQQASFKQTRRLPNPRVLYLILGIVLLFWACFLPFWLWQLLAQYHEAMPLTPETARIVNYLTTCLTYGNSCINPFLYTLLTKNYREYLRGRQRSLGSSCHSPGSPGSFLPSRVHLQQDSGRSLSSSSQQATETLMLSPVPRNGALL

[2] = molecular target: T1, Urotensin-2 receptor; experiment: Allosteric modulation of urotensin-2 receptor in Sprague-Dawley rat thoracic aorta assessed as change in URP-mediated aortic ring contraction by measuring URP pEC50 at 10^-5M preincubated for 15 mins followed by URP addition (Rvb = 8.09 +/- 0.03 No_unit)
[3] = molecular target: T2, Urotensin-2 receptor (Homo sapiens, UniProt Q9UKP6); experiment: Allosteric modulation of human urotensin-2 receptor expressed in HEK293 cells assessed as change in URP-induced G12 activation by measuring URP pEC50 at 10^-5 M preincubated for 30 mins followed by URP addition by BRET assay (Rvb = 6.75 +/- 0.19 No_unit)
T2 sequence (Q9UKP6 whole entry): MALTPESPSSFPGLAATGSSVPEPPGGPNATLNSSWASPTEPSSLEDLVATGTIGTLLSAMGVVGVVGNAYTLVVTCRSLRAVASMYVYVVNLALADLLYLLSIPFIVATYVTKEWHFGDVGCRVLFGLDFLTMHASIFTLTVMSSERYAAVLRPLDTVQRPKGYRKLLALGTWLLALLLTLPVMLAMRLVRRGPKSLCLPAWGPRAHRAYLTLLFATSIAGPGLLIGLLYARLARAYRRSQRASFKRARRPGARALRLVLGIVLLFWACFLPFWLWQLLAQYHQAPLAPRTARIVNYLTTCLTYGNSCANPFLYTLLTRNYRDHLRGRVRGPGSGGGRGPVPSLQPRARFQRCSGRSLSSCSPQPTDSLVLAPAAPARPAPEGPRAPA

[4] = molecular target: T2, Urotensin-2 receptor; experiment: Allosteric modulation of human urotensin-2 receptor expressed in HEK293 cells assessed as change in human urotensin-2-induced Gq activation by measuring urotensin-2 pEC50 at 10^-5 M preincubated for 30 mins followed by urotensin-2 addition by BRET assay (Rvb = 7.88 +/- 0.07 No_unit)
[5] = molecular target: T2, Urotensin-2 receptor; experiment: Allosteric modulation of human urotensin-2 receptor expressed in HEK293 cells assessed as change in URP-induced Gq activation by measuring URP pEC50 at 10^-5 M preincubated for 30 mins followed by URP addition by BRET assay (Rvb = 8.28 +/- 0.08 No_unit)
[6] = molecular target: T2, Urotensin-2 receptor; experiment: Allosteric modulation of human urotensin-2 receptor expressed in HEK293 cells assessed as change in human urotensin-2-induced G12 activation by measuring urotensin-2 pEC50 at 10^-5 M preincubated for 30 mins followed by urotensin-2 addition by BRET assay (Rvb = 6.31 +/- 0.17 No_unit)
[7] = Allosteric modulation of urotensin-2 receptor in Sprague-Dawley rat thoracic aorta assessed as change in URP-mediated aortic ring contraction by measuring URP pEC50 at 1 uM preincubated for 15 mins followed by URP addition (Rvb = 8.09 +/- 0.03 No_unit)
[8] = Allosteric modulation of urotensin-2 receptor in Sprague-Dawley rat thoracic aorta assessed as change in human urotensin-2-mediated aortic ring contraction by measuring urotensin-2 pEC50 at 1 uM preincubated for 15 mins followed by urotensin-2 addition (Rvb = 8.61 +/- 0.05 No_unit)

Structure (SMILES) | EC50 [1] [nM] | EC50 [2] [nM] | other results
COc1ccc(C=CC2=NN(CCCCN)C(=O)N(Cc3ccc4ccccc4c3)c3ccccc32)cc1 | 3.6 | 8.5 | –
NCCCCN1N=C(C=Cc2ccc(O)cc2)c2ccccc2N(Cc2ccc3ccccc3c2)C1=O | 15 | – | –
NCCCCN1N=C(C=Cc2ccc(O)cc2)c2ccccc2N(Cc2ccc(-c3ccccc3)cc2)C1=O | – | 9.3 | EC50 [3]: 117 nM; EC50 [4]: 14 nM; EC50 [5]: 4.2 nM; EC50 [6]: 2190 nM
COc1ccc(CCC2=NN(CCCN)C(=O)N(Cc3ccc(-c4ccccc4)cc3)c3ccccc32)cc1 | 3.2 | 7.8 | –
NCCCN1N=C(CCc2ccc(O)cc2)c2ccccc2N(Cc2ccc3ccccc3c2)C1=O | 3.7 | 10 | –
NCCCCN1N=C(CCc2ccc(O)cc2)c2ccccc2N(Cc2ccc3ccccc3c2)C1=O | 4.4 | 10 | EC50 [3]: 1100 nM; EC50 [4]: 11 nM; EC50 [5]: 5 nM; EC50 [6]: 1180 nM
NCCCCN1N=C(CCc2ccc(O)cc2)c2ccccc2N(Cc2ccc(-c3ccccc3)cc2)C1=O | 3.5 | 20 | –
CNCCCCN1N=C(CCc2nc3ccccc3s2)c2ccccc2N(Cc2ccc(-c3ccccc3)cc2)C1=O | 6 | 15 | –
CNCCCCN1N=C(CCc2nc3ccccc3s2)c2ccccc2N(Cc2cccc3ccccc23)C1=O | 4.1 | 6.6 | –
COc1ccc(CCC2=NN(CCCN)C(=O)N(Cc3ccc4ccccc4c3)c3ccccc32)cc1 | 4 | 6.3 | –
NCCCN1N=C(CCc2ccc(O)cc2)c2ccccc2N(Cc2ccc(-c3ccccc3)cc2)C1=O | 4.5 | 11 | –
CC(C)[C@H](NC(=O)[C@@H]1CSSC[C@H](NC(=O)[C@H](C)N)C(=O)N[C@@H](Cc2ccccc2)C(=O)N[C@@H](Cc2ccc(-c3ccccc3)cc2)C(=O)N[C@@H](CCCCN)C(=O)N[C@@H](Cc2ccc(O)cc2)C(=O)N1)C(=O)O | – | – | EC50 [7]: 18 nM; EC50 [8]: 25 nM
NCCCN1N=C(C=Cc2ccc(O)cc2)c2ccccc2N(Cc2ccc3ccccc3c2)C1=O | 12 | 20 | –

Further compounds by falling EC50 [2], results first:

EC50 [1] [nM] | EC50 [2] [nM] | Structure (SMILES) | other results
– | 6.3 | COc1ccc(C=CC2=NN(CCCCN)C(=O)N(Cc3ccc(-c4ccccc4)cc3)c3ccccc32)cc1 | EC50 [3]: 1740 nM; EC50 [4]: 8.5 nM; EC50 [5]: 7.1 nM; EC50 [6]: 2240 nM
4.8 | 5.8 | NCCCN1N=C(CCc2nc3ccccc3s2)c2ccccc2N(Cc2cccc3ccccc23)C1=O | –
3.7 | 5 | COc1ccc(CCC2=NN(CCCCN)C(=O)N(Cc3ccc(-c4ccccc4)cc3)c3ccccc32)cc1 | –
4.1 | 4.9 | CNCCCN1N=C(CCc2nc3ccccc3s2)c2ccccc2N(Cc2ccc(-c3ccccc3)cc2)C1=O | –
4.3 | 4.3 | CNCCCCN1N=C(CCc2nc3ccccc3s2)c2ccccc2N(Cc2ccc3ccccc3c2)C1=O | –
5 | 4 | COc1ccc(CCC2=NN(CCCCN)C(=O)N(Cc3ccc4ccccc4c3)c3ccccc32)cc1 | –
3.3 | 4 | NCCCN1N=C(CCc2nc3ccccc3s2)c2ccccc2N(Cc2ccc3ccccc3c2)C1=O | EC50 [3]: 1950 nM; EC50 [4]: 11 nM; EC50 [5]: 6.2 nM; EC50 [6]: 3720 nM
1.4 | 3.7 | NCCCN1N=C(CCc2nc3ccccc3s2)c2ccccc2N(Cc2ccc(-c3ccccc3)cc2)C1=O | –
12 | 3.7 | NCCCCN1N=C(CCc2nc3ccccc3s2)c2ccccc2N(Cc2ccc(-c3ccccc3)cc2)C1=O | –
3 | 3.5 | NCCCCN1N=C(CCc2nc3ccccc3s2)c2ccccc2N(Cc2ccc3ccccc3c2)C1=O | –

Source: BindingDB's records for doi:10.1021/acs.jmedchem.7b01525 (University of Montreal, 2017)
